The target of one assay is T1, B-RAF V600E (Homo sapiens, UniProt P15056, V600E).
T1 construct: expressed in transfected cells; host or cells: T-Rex 293 cells (Invitrogen #R71007)
As to the kind of experiment: Target protein degradation, assay C: T-Rex 293 cells, HA-BRAF_V600E, 384 well format. Type of assay: cell-based. The note with it: T-Rex 293 HA-BRAF_V600E cells, 24 hours, Examples 83-269; for DC50: Assay C; for Dmax: T-REx-293, Assay C. The procedure, abridged: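 After 24 h exposure to an 11-point 1:3 series (300 nM–5 pM, 0.5% DMSO), fixed T-Rex 293 cells carrying HA-BRAF V600E (induced with 1 ng/mL doxycycline) were stained anti-HA and imaged. DC50 and Dmax were derived from BRAF intensity relative to control, and cytotoxicity from nuclear counts.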

For the next assay, the target named is T2, B-RAF G466V (Homo sapiens, UniProt P15056, G466V).
T2 construct: expressed in transfected cells; host or cells: T-Rex 293 cells (Invitrogen #R71007)
The assay is described as follows: Target protein degradation, assay D: T-Rex 293 cells, HA-BRAF_G466V, 384 well format. It is filed as cell-based. The conditions noted are these: T-Rex 293 HA-BRAF_G466V cells, 24 hours, Examples 83-269; for Dmax: T-REx-293, Assay D. In short, it runs like this: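 Degradation measured by high-content imaging of anti-HA immunofluorescence in fixed T-Rex 293 cells carrying inducible HA-BRAF G466V (1 ng/mL doxycycline), after 24 h PROTAC exposure at 37 °C over 300 nM–5 pM (1:3, 11 points, 0.5% DMSO). Outputs DC50 and Dmax as % of control; nuclei counts against DMSO wells gauge toxicity.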

This note sets out measurements from patent US11957759B1, “Rapidly accelerated fibrosarcoma (RAF) degrading compounds and associated methods of use” (Arvinas Operations, Inc., priority 2022, dated 2024).

Some results are limits rather than exact numbers.

A word on the DC50: it is the midpoint of the concentration-degradation curve. The low end stands for a more potent degrader, the high end for a less potent degrader. One may read the Dmax as the greatest extent of degradation seen. Low readings indicate a partial loss of target, high ones a fuller loss of target.

T2 sequence (P15056 whole entry G466V): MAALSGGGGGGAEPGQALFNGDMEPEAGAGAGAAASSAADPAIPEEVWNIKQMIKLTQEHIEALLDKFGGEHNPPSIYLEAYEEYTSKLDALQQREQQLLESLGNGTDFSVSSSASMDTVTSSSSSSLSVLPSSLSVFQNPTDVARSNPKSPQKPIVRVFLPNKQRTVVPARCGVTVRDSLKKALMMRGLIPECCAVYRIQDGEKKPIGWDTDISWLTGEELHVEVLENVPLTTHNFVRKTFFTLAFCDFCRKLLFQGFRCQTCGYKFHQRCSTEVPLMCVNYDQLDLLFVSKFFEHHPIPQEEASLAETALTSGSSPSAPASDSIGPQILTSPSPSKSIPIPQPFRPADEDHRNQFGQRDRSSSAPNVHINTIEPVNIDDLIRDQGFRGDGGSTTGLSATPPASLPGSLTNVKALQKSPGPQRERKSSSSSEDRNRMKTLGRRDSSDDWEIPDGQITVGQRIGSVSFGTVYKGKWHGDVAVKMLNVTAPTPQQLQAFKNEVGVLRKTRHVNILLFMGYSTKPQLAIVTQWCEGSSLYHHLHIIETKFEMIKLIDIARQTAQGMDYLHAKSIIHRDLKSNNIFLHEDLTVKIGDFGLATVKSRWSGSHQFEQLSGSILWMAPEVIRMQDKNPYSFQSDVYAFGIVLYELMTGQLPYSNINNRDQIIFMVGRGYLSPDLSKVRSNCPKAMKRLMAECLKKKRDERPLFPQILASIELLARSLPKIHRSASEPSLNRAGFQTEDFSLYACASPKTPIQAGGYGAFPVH
T1 sequence (P15056 whole entry V600E): as the sequence (P15056 whole entry G466V) above, with V466G, V600E counted along it

`N#Cc1c(NS(=O)(=O)N2CC[C@@H](F)C2)ccc(F)c1Oc1ccc2ncn(-c3ccc(N4CCN(C(=O)C5CCN(c6ccc7c(c6)CN(C6CCC(=O)NC6=O)C7=O)CC5)CC4)cc3)c(=O)c2c1` (single isomer, unassigned) [Example 242, (3R)-N-{2-cyano-3-[(3-(4-[4-(1-{2-[(3R*)-2,6-dioxopiperidin-3-yl]-1-oxo-2,3-dihydro-1H-isoindol-5-yl}piperidine-4-carbonyl)piperazin-1-yl]phenyl}-4-oxo-3,4-dihydroquinazolin-6-yl)oxy]-4-fluorophenyl}-3-fluoropyrrolidine-1-sulfonamide]: the half-maximal degradation concentration (DC50) on B-RAF V600E was greater than 500 nM. On B-RAF G466V (Assay D), the “B-RAF G466V DMax (%)” value is “C (C ≤ 35)” and the half-maximal degradation concentration (DC50) is 10 to 30 nM.
Consider `N#Cc1c(NS(=O)(=O)N2CC[C@@H](F)C2)ccc(F)c1Oc1ccc2ncn(-c3ccc(N4CC5(CC(CN6CCN(c7ccc8c(c7)CN([C@H]7CCC(=O)NC7=O)C8=O)CC6)C5)C4)cc3)c(=O)c2c1` [Example 191, (3R)-N-(2-cyano-3-{[3-(4-{6-[(4-{2-[(3S)-2,6-dioxopiperidin-3-yl]-1-oxo-2,3-dihydro-1H-isoindol-5-yl}piperazin-1-yl)methyl]-2-azaspiro[3.3]heptan-2-yl}phenyl)-4-oxo-3,4-dihydroquinazolin-6-yl]oxy}-4-fluorophenyl)-3-fluoropyrrolidine-1-sulfonamide], for which the half-maximal degradation concentration (DC50) lay within 50 to 500 nM on B-RAF V600E and 1 to 10 nM at B-RAF G466V (Assay D). Further, the greatest degradation seen (Dmax) on B-RAF V600E and on B-RAF G466V was 35 to 70% in each case.
For the compound `N#Cc1c(NS(=O)(=O)N2CC[C@@H](F)C2)ccc(F)c1Oc1ccc2ncn(-c3ccc(N4CCC(OC5CC6(C5)CN(c5ccc7c(c5)CN(C5CCC(=O)NC5=O)C7=O)C6)CC4)cc3)c(=O)c2c1` (stereo partly drawn) [Example 178, (3R)—N-{2-cyano-3-[(3-{4-[4-({2-[2-(2,6-dioxopiperidin-3-yl)-1-oxo-2,3-dihydro-1H-isoindol-5-yl]-2-azaspiro[3.3]heptan-6-yl}oxy)piperidin-1-yl]phenyl}-4-oxo-3,4-dihydroquinazolin-6-yl)oxy]-4-fluorophenyl}-3-fluoropyrrolidine-1-sulfonamide], the DC50 fell in the range of 50 to 500 nM at B-RAF V600E and 10 to 30 nM at B-RAF G466V (Assay D). Besides, the maximal degradation (Dmax) at B-RAF V600E and on B-RAF G466V was 35 to 70% in each case.
Take `N#Cc1c(NS(=O)(=O)N2CC[C@@H](F)C2)ccc(F)c1Oc1ccc2ncn(-c3ccc(N4CC5(CC(CN6CCC(c7ccc8c(c7)CN(C7CCC(=O)NC7=O)C8=O)CC6)C5)C4)cc3)c(=O)c2c1` (stereo partly drawn) [Example 190, (3R)-N-{2-cyano-3-[(3-(4-[6-({4-[2-(2,6-dioxopiperidin-3-yl)-1-oxo-2,3-dihydro-1H-isoindol-5-yl]piperidin-1-yl}methyl)-2-azaspiro[3.3]heptan-2-yl]phenyl}-4-oxo-3,4-dihydroquinazolin-6-yl)oxy]-4-fluorophenyl}-3-fluoropyrrolidine-1-sulfonamide]: the DC50 at B-RAF V600E was in the range of 50 to 500 nM; at B-RAF G466V (Assay D), 1 to 10 nM. Also, the Dmax at B-RAF V600E and on B-RAF G466V was 35 to 70% each time.
On to `N#Cc1c(NS(=O)(=O)N2CC[C@@H](F)C2)ccc(F)c1Oc1ccc2ncn(-c3ccc(N4CCN(CC5CC6(C5)CN(c5ccc7c(c5)CN([C@H]5CCC(=O)NC5=O)C7=O)C6)CC4)cc3)c(=O)c2c1` [Example 179, (3R)—N-(2-cyano-3-{[3-(4-{4-[(2-{2-[(3S)-2,6-dioxopiperidin-3-yl]-1-oxo-2,3-dihydro-1H-isoindol-5-yl}-2-azaspiro[3.3]heptan-6-yl)methyl]piperazin-1-yl}phenyl)-4-oxo-3,4-dihydroquinazolin-6-yl]oxy}-4-fluorophenyl)-3-fluoropyrrolidine-1-sulfonamide], for which the values for the DC50 on B-RAF V600E and at B-RAF G466V (Assay D) were 50 to 500 nM and 1 to 10 nM, respectively. Further, the Dmax at B-RAF V600E and on B-RAF G466V was no less than 70% throughout.
Take `N#Cc1c(NS(=O)(=O)N2CC[C@@H](F)C2)ccc(F)c1Oc1ccc2ncn(-c3cnc(C4(N5CCN(CC6CCN(c7ccc8c(c7)CN(C7CCC(=O)NC7=O)C8=O)CC6)CC5)CC4)nc3)c(=O)c2c1` (stereo partly drawn) [Example 100, (3R)-N-(2-cyano-3-{[3-(2-{1-[4-({1-[2-(2,6-dioxopiperidin-3-yl)-1-oxo-2,3-dihydro-1H-isoindol-5-yl]piperidin-4-yl}methyl)piperazin-1-yl]cyclopropyl}pyrimidin-5-yl)-4-oxo-3,4-dihydroquinazolin-6-yl]oxy}-4-fluorophenyl)-3-fluoropyrrolidine-1-sulfonamide]: the results for the DC50 on B-RAF V600E and at B-RAF G466V (Assay D) were 50 to 500 nM and 1 to 10 nM, respectively. Besides, the Dmax on B-RAF V600E and on B-RAF G466V was 35 to 70% throughout.
`C[C@H]1CN(CC2CCN(c3ccc4c(c3F)CN([C@H]3CCC(=O)NC3=O)C4=O)CC2)CCN1c1ccc(-n2cnc3ccc(Oc4c(F)ccc(NS(=O)(=O)N5CC[C@@H](F)C5)c4C#N)cc3c2=O)nc1` [Example 213, (3R)-N-{2-cyano-3-[(3-{5-[(2S)-4-[(1-{2-[(3S)-2,6-dioxopiperidin-3-yl]-4-fluoro-1-oxo-2,3-dihydro-1H-isoindol-5-yl}piperidin-4-yl)methyl]-2-methylpiperazin-1-yl]pyridin-2-yl}-4-oxo-3,4-dihydroquinazolin-6-yl)oxy]-4-fluorophenyl}-3-fluoropyrrolidine-1-sulfonamide]: the results for the DC50 on B-RAF V600E and on B-RAF G466V (Assay D) were 50 to 500 nM and 1 to 10 nM, respectively. Further, the Dmax at B-RAF V600E and at B-RAF G466V was no more than 35% in each case.
Take `Cc1c(N2CCC(CN3CCN(c4ccc(-n5cnc6ccc(Oc7c(F)ccc(NS(=O)(=O)N8CC[C@@H](F)C8)c7C#N)cc6c5=O)cc4)CC3)CC2)ccc2c1CN(C1CCC(=O)NC1=O)C2=O` (single isomer, unassigned) [Example 111, (3R)-N-(2-cyano-3-{[3-(4-{4-[(1-{2-[(3R*)-2,6-dioxopiperidin-3-yl]-4-methyl-1-oxo-2,3-dihydro-1H-isoindol-5-yl}piperidin-4-yl)methyl]piperazin-1-yl}phenyl)-4-oxo-3,4-dihydroquinazolin-6-yl]oxy}-4-fluorophenyl)-3-fluoropyrrolidine-1-sulfonamide]: the 50% degradation concentration (DC50) is 50 to 500 nM at B-RAF V600E and 1 to 10 nM on B-RAF G466V (Assay D). Moreover, the Dmax on B-RAF V600E and at B-RAF G466V was 35 to 70% in each case.
Consider `N#Cc1c(NS(=O)(=O)N2CC[C@@H](F)C2)ccc(F)c1Oc1ccc2ncn(-c3ccc(N4CC(CN5CCN(C6CCN(c7ccc8c(c7)CN(C7CCC(=O)NC7=O)C8=O)CC6)CC5)C4)cc3)c(=O)c2c1` (single isomer, unassigned) [Example 197, (3R)-N-[2-cyano-3-({3-[4-(3-{[4-(1-{2-[(3R*)-2,6-dioxopiperidin-3-yl]-1-oxo-2,3-dihydro-1H-isoindol-5-yl}piperidin-4-yl)piperazin-1-yl]methyl}azetidin-1-yl)phenyl]-4-oxo-3,4-dihydroquinazolin-6-yl}oxy)-4-fluorophenyl]-3-fluoropyrrolidine-1-sulfonamide], for which the DC50 on B-RAF V600E fell in the range of 50 to 500 nM; at B-RAF G466V (Assay D), 1 to 10 nM. Also, the Dmax at B-RAF V600E was no more than 35%; at B-RAF G466V it was 35 to 70%.
Turning to `N#Cc1c(NS(=O)(=O)N2CC[C@@H](F)C2)ccc(F)c1Oc1ccc2ncn(-c3ccc(C4CCN(CC5CN(c6ccc7c(c6)CN([C@H]6CCC(=O)NC6=O)C7=O)C5)CC4)cc3)c(=O)c2c1` [Example 256, (3R)-N-(2-cyano-3-([3-(4-{1-[(1-{2-[(3S)-2,6-dioxopiperidin-3-yl]-1-oxo-2,3-dihydro-1H-isoindol-5-yl}azetidin-3-yl)methyl]piperidin-4-yl}phenyl)-4-oxo-3,4-dihydroquinazolin-6-yl]oxy}-4-fluorophenyl)-3-fluoropyrrolidine-1-sulfonamide], the figures for the 50% degradation concentration (DC50) at B-RAF V600E and at B-RAF G466V (Assay D) were 50 to 500 nM and 1 to 10 nM, respectively. In addition, the greatest degradation seen (Dmax) at B-RAF V600E was 35 to 70%; on B-RAF G466V, no less than 70%.
As to `N#Cc1c(NS(=O)(=O)N2CC[C@@H](F)C2)ccc(F)c1Oc1ccc2ncn(-c3cccc(N4CCN(CC5CN(c6ccc7c(c6)CN([C@H]6CCC(=O)NC6=O)C7=O)C5)CC4)c3)c(=O)c2c1` [Example 254, (3R)-N-(2-cyano-3-{[3-(3-{4-[(1-{2-[(3S)-2,6-dioxopiperidin-3-yl]-1-oxo-2,3-dihydro-1H-isoindol-5-yl}azetidin-3-yl)methyl]piperazin-1-yl}phenyl)-4-oxo-3,4-dihydroquinazolin-6-yl]oxy}-4-fluorophenyl)-3-fluoropyrrolidine-1-sulfonamide], the DC50 was 50 to 500 nM at B-RAF V600E and 1 to 10 nM at B-RAF G466V (Assay D). Besides, the Dmax was 35 to 70% at B-RAF V600E and no less than 70% on B-RAF G466V.
In the same order, the values of `N#Cc1c(NS(=O)(=O)N2CC[C@@H](F)C2)ccc(F)c1Oc1ccc2ncn(-c3ccc(N4CCN(CC5CN(c6ccc7c(c6)CN([C@@H]6CCC(=O)NC6=O)C7=O)C5)CC4)cc3)c(=O)c2c1` [Example 107, (3R)-N-(2-cyano-3-{[3-(4-{4-[(1-{2-[(3R)-2,6-dioxopiperidin-3-yl]-1-oxo-2,3-dihydro-1H-isoindol-5-yl}azetidin-3-yl)methyl]piperazin-1-yl}phenyl)-4-oxo-3,4-dihydroquinazolin-6-yl]oxy}-4-fluorophenyl)-3-fluoropyrrolidine-1-sulfonamide] are 5 to 50 nM, 1 to 10 nM, 35 to 70% and 35 to 70%.
